Results published in US11471444B2, “Methods of inhibiting tumor metastasis” (Vanderbilt University, priority 2017, dated 2022).

Legend:
4T1-RFP-luciferase cells [1] = test: Orthotopic 4T1 mouse model of metastasis (second experiment); format: in vivo, Balb/C mice; conditions: ifetroban 50 mg/kg daily or aspirin 12 mg/kg daily from tumor volume 50 mm^3; lungs harvested approx. 4 weeks later; FIG. 3
Procedure: 1×10^5 4T1-RFP-luciferase cells were implanted into the left inguinal mammary fatpads of 6-week old, virgin WT Balb/C female mice as above. Mice were treated by orogastric gavage with ifetroban (50 mg/kg daily) or vehicle control when average tumor volume reached 50 mm^3 as above. Additionally a third group was treated with aspirin (12 mg/kg daily). Lungs were harvested approximately 4 weeks later. Lungs were assessed by whole mount hematoxylin staining to enumerate surface metastases (macro metastases) (FIG. 3).

MDA-MB-231 cells = test: Lung metastases after tail vein injection of MDA-MB-231 cells; format: in vivo, mice; conditions: 50 mg/kg daily by orogastric gavage from 48 h before cell injection, continued 3 weeks; FIG. 4
Procedure: Mice were randomized into groups receiving treatment by orogastric gavage with ifetroban (50 mg/kg daily) or vehicle, using 10 mice in both the ifetroban and control groups and 4% sucrose in water for the vehicle. Mice were treated 48 h prior to hematogenous delivery of MDA-MB-231 cells (1×10^5 cells) by tail vein injection, and ifetroban treatment was continued for 3 weeks thereafter, at which point lungs were collected from each mouse, and lung metastatic lesions visible to the naked eye were counted (FIG. 4).

[2] = system: MDA-MB-231 (breast) cancer cells; test: Hematogenous metastasis of breast cancer cells (tail vein injection); format: in vivo, nu/nu mice; conditions: 50 mg/kg by orogastric gavage, pre-treated 24 hours, daily for 21 days; FIG. 8
Procedure: (§1) MDA-MB-231 (breast), MiaPaca2 (pancreas) and A549 (lung) cancer cells were delivered by tail vein injection to nu/nu mice pre-treated 24 hours by orogastric gavage with ifetroban (50 mg/kg; N=10 per group) or vehicle (N=10). Mice continued daily treatment for an additional 21 days. On day 21, lungs were harvested and assessed for metastases. N=9, P value, Student's t-test.

4T1-RFP-luciferase cells [3] = test: Orthotopic 4T1 mouse model of metastasis (first experiment); format: in vivo, Balb/C mice
Procedure: 1×10^5 4T1-RFP-luciferase cells were implanted into the left inguinal mammary fatpads of 6-week old, virgin WT Balb/C female mice using the following protocol. Mammary tumor cells (4T1-RFP-luciferase cells) are collected by trypsinization, counted, and resuspended in 50 microliters of serum-free media+50 microliters of growth factor-reduced Matrigel, for a total volume of 100 microliters. The cells are loaded into a syringe with a 26-g needle. The cells are injected into the inguinal mammary gland, which lies directly under (and attached to) the skin. The entire injection procedure takes about 10 seconds per mouse. Mice were treated by orogastric gavage with ifetroban (50 mg/kg daily) or vehicle control when average tumor volume reached 200 mm^3, using 8 mice in the ifetroban treatment group, 4 mice in the control group, and 4% sucrose in water for the vehicle. Tumors, lungs and plasma were harvested approximately 3 weeks later. Lungs were assessed by whole mount hematoxylin staining to enumerate surface metastases (macro metastases) (FIG. 1). Lungs were sectioned and stained with hematoxylin and eosin to confirm that hematoxylin-stained nodules were metastatic lesions, and to enumerate microscopic metastases (FIG. 2).
(§2) 1×10^5 4T1-RFP-luciferase cells were implanted into the left inguinal mammary fat pads of 6-week old, virgin WT Balb/C female mice. Mice were treated by orogastric gavage with ifetroban (50 mg/kg daily; N=8) or vehicle control (N=4) when average tumor volume reached 200 mm^3. […] Mouse total body weight was not affected by Ifetroban treatment (50 mg/kg daily) for 3 weeks (FIG. 5C).

4T1 cells = test: 4T1 cell culture growth and viability; format: cell-based; conditions: treated for 96 hours; FIG. 5A
Description: For cell culture experiments, vehicle is PBS.

[4] = system: MiaPaca2 (pancreas) cancer cells; test: Hematogenous metastasis of pancreatic cancer cells (tail vein injection); format: in vivo, nu/nu mice; conditions: 50 mg/kg by orogastric gavage, pre-treated 24 hours, daily for 21 days; FIG. 8
Procedure: as §1

[5] = Total body weight of 4T1 tumor-bearing mice; format: in vivo, Balb/C mice; conditions: 50 mg/kg daily for 3 weeks; FIG. 5C
Procedure: as §2

A549 (lung) cancer cells = test: Hematogenous metastasis of lung cancer cells (tail vein injection); format: in vivo, nu/nu mice; conditions: 50 mg/kg by orogastric gavage, pre-treated 24 hours, daily for 21 days; FIG. 8
Procedure: as §1

SMILES	surface lung metastases (macro metastases) (4T1-RFP-luciferase cells [1])	lung metastatic lesions visible to the naked eye (MDA-MB-231 cells)	hematogenous metastasis to lungs, breast cancer cells [2]	microscopic lung metastases (4T1-RFP-luciferase cells [3]; 50 mg/kg daily by orogastric gavage from tumor volume 200 mm^3, approx. 3 weeks, lung sections, hematoxylin and eosin, FIG. 2)	surface lung metastases (macro metastases) (4T1-RFP-luciferase cells [3]; 50 mg/kg daily by orogastric gavage from tumor volume 200 mm^3, lungs harvested approx. 3 weeks later, whole mount hematoxylin staining, FIG. 1)	primary tumor volume (4T1-RFP-luciferase cells [3]; 50 mg/kg daily for 3 weeks, FIG. 5B)	4T1 cell number (automated cell counting) (4T1 cells)	number of apoptotic 4T1 cells (Annexin V staining) (4T1 cells)	hematogenous metastasis to lungs, pancreatic cancer cells [4]	total mouse body weight [5]	hematogenous metastasis to lungs, lung cancer cells (A549 (lung) cancer cells)
CC(=O)Oc1ccccc1C(=O)O [aspirin]	decrease	–	–	–	–	–	–	–	–	–	–
CCCCCNC(=O)c1coc([C@H]2[C@@H](Cc3ccccc3CCC(=O)O)[C@@H]3CC[C@H]2O3)n1 [ifetroban]	decrease	decrease	decreased	decrease	decrease	did not affect	no ifetroban-mediated changes	no ifetroban-mediated changes	decreased	not affected	decreased
